According to patent EP4714441A1, “COMPOSITION FOR PREVENTING OR ALLEVIATING HEPATIC DYSFUNCTION” (KIRIN HOLDINGS KABUSHIKI KAISHA, priority 2023, dated 2025):

Tests used:
Format in all cases: cell-based, human
HepG2 cells [1] = experiment: Cell viability by MTT assay in HepG2 cells with hepatocyte damage induced by hydrogen peroxide; settings: HepG2 cells damaged by hydrogen peroxide; result in words
Method: (§1) A human liver cancer-derived cell line (HepG2: HB-8065™, Lot No. 70029112) was obtained from the American Type Culture Collection, and Dulbecco's Modified Eagle Medium (Thermo Fisher Scientific K.K.) containing 10% FBS was used as the basal medium. The cells were cultured in a 37°C, 5% CO2 incubator, and cells passaged for 17 to 22 generations were used for the experiments.
(§2) A cell suspension adjusted to an initial cell concentration of 2 x 10^4 cells/mL was seeded at 0.15 mL into a 96-well plate (Thermo Fisher Scientific K.K.).
After 20 hours of culture from seeding, alpha-lipoic acid trisulfide (LASSS) or alpha-lipoic acid trisulfide choline ester (LASSS-CE) was added to the medium in groups with a final concentration of 0.025 mM or 0.05 mM. Separately, a group to which only the solvent for LASSS or LASSS-CE (phosphate-buffered saline (PBS) containing 4% DMSO (FUJIFILM Wako Pure Chemical Corporation)) was added was designated as the solvent-added group. […] After culturing for 2 hours following the addition of hydrogen peroxide solution or PBS, cell viability was measured by the MTT assay to evaluate the extent of hepatocyte injury. […]

[2] = Cell viability by MTT assay in HepG2 cells without hydrogen peroxide (effect on cell proliferation itself); settings: human, hepg2 cells, PBS instead of hydrogen peroxide, control group = 100; for viability at 25 µM: Sample-added group (0.025 mM); for viability at 50 µM: Sample-added group (0.05 mM)
Method: as §1, §2
(§3) After 20 hours of culture from seeding, alpha-lipoic acid trisulfide (LASSS) or alpha-lipoic acid trisulfide choline ester (LASSS-CE) was added to the medium in groups with a final concentration of 0.025 mM or 0.05 mM. Separately, a group to which only the solvent for LASSS or LASSS-CE (phosphate-buffered saline (PBS) containing 4% DMSO (FUJIFILM Wako Pure Chemical Corporation)) was added was designated as the solvent-added group. After 4 hours of culture following the sample addition, the medium of the above sample-added groups and the solvent-added group was replaced with a medium (not containing LASSS or LASSS-CE) to which hydrogen peroxide solution (FUJIFILM Wako Pure Chemical Corporation) had been added to a final concentration of 0.1 mM, thereby inducing hepatocyte damage. A group in which the same amount of PBS was added instead of hydrogen peroxide solution to the solvent-added group was designated as the control group. After culturing for 2 hours following the addition of hydrogen peroxide solution or PBS, cell viability was measured by the MTT assay to evaluate the extent of hepatocyte injury. In the table, SD represents standard deviation.
(§4) Furthermore, to evaluate the effect of LASSS and LASSS-CE on cell proliferation itself, a similar experiment was conducted by replacing the addition of hydrogen peroxide solution with the addition of the same amount of PBS, and the cell viability was measured by the MTT assay method.

HepG2 cells [3] = experiment: as above; settings: without hydrogen peroxide solution; result in words
Method: as §1, §2, §3, §4

Structure (SMILES)	cell viability compared to the hydrogen peroxide-added group (HepG2 cells [1])	viability at 25 µM [2]	viability at 50 µM [2]	effect on the proliferation of HepG2 cells (HepG2 cells [3])
O=C(O)CCCCC1CCSSS1 (stereo not drawn) [LASSS, alpha-lipoic acid trisulfide]	an improvement in cell viability was confirmed	102%	102%	did not affect the proliferation of HepG2 cells
C[N+](C)(C)CCOC(=O)CCCCC1CCSSS1 (stereo not drawn) [LASSS-CE, alpha-lipoic acid trisulfide choline ester]	an improvement in cell viability was confirmed	109%	106%	did not affect the proliferation of HepG2 cells
